Columns and labels:
[1] = system: E. coli cells; test: Decrease of cell survival (colony counting) after white-light irradiation; type: cell-based, Escherichia coli; conditions: 5 min dark incubation, 15 min white light (150 mW/cm^2)
Protocol: (§1) Escherichia coli strain O4 (wild type), and methycillin-resistant Staphylococcus aureus, strain MRSA 110, were grown aerobically at 37° C. in brain heart infusion broth (BHI, Difco, Detroit, Mich.). The cells in the stationary phase of growth were harvested by centrifugation (2,000 g for 15 min) of the broth cultures, washed twice with 10 mM PBS at pH=7.4, containing 2.7 mM KCl and 0.14 M NaCl, and suspended in PBS at a density of 10^8-10^9 cells/ml (absorbance of about 0.7 at 650 nm). Aliquots of 5 ml of the cell suspension were incubated with 1 μM porphyrins for 5 min in the dark at room temperature. After incubation the suspensions were centrifuged and the cell pellets were collected immediately or washed with PBS and centrifuged again for one or three times.
(§2) The toxic effects of T4MPyP and its analogues on E. coli and S. aureus cells were evaluated by measuring the extent of growth inhibition (bacteriostatic effect) and reduction of survival (cytocidal/bacteriocidal effect) following treatment with porphyrin in the dark or upon light exposure.
(§3) In all cases, 5 ml of the cell suspension (10^8-10^9 cells/ml) were incubated for 5 min in the dark at room temperature with the selected photosensitizer at concentrations ranging between 0.5 and 10 μM. After dark-incubation, some of the cell samples were irradiated with white light (150 mW/cm^2). During irradiation, (up to 30 min) the cells were kept at 37° C. and magnetically stirred. The treated and untreated control cells were diluted with BHI and maintained at 37° C. while the absorbance of the suspension at 650 nm was monitored at predetermined time periods for determining growth curves. The percent of growth inhibition in the treated cells was calculated by the following equation: […]
(§4) where AX, and AC are the absorbances measured after 3 h incubation, respectively, for the treated and control cell suspensions, respectively, while A0 represents the initial absorbance and the AC is that of the control cell suspension after 5 hours incubation. Cell survival was determined by plating serially diluted aliquots of treated and untreated cells on brain heart agar and counting the number of colonies after 18-24 h incubation at 37° C.

[2] = Fluorescence quantum yields; type: physicochemical; conditions: for ΦF (PBS), fluorescence quantum yield: in PBS; for ΦF (SDS), fluorescence quantum yield: in aqueous 2% SDS
Protocol: Ground-state absorption spectra of the porphyrins (ca. 5 μM in phosphate buffered saline (PBS, pH=7.4) were recorded with a Lambda 5 Perkin-Elmer spectrophotometer. Fluorescence spectra, corrected for the instrumental response, were recorded with a Perkin-Elmer (model LS) or a Spex (Fluorolog F112) spectrofluorimeter. Fluorescence quantum yields ((IF) of the porphyrin derivatives in PBS and in water containing 2% sodium dodecylsulfate (a detergent, hereinafter “SDS”) were determined by measuring the area of the emission spectrum (600-800 nm range, excitation at 560 nm) and using tetra-n-propylporphycene in toluene as a reference (ΦF=0.38). Braslavsky et al, J. Photochem. Photobiol. B: Biol., 40:191-198 (1997). In all cases, the absorbance of the sample and the reference solution were kept below 0.1 at the excitation wavelength to minimize inner filter effects.

[3] = system: S. aureus cells; test: Growth inhibition after 5 min incubation with porphyrin and white-light irradiation; type: cell-based, Staphylococcus aureus
Protocol: (§5) The abilities of various examples of the porphyrins of the instant invention to kill Gram-negative and Gram-positive bacteria were tested against that of T4MPyP. Each of the compounds was incubated with E. coli and S. aureus cells for 5 minutes, following which the samples were irradiated with white light for varying lengths of time.
as §1, §2
[…] After dark-incubation, some of the cell samples were irradiated with white light (150 mW/cm^2). During irradiation, (up to 30 min) the cells were kept at 37° C. and magnetically stirred. The treated and untreated control cells were diluted with BHI and maintained at 37° C. while the absorbance of the suspension at 650 nm was monitored at predetermined time periods for determining growth curves. The percent of growth inhibition in the treated cells was calculated by the following equation:
as §4

[4] = Fluorescence decay times (phase-shift method); type: physicochemical; conditions: ca. 5 μM, air-equilibrated buffer pH 7.4, λexc = 420 nm, λem > 600 nm
Protocol: Fluorescence decay times of the porphyrin samples were measured by means of a Spex Fluorolog-τ2 spectrofluorimeter based on the phase-shift method. The frequency response curves (phase-shift and demodulation ratio vs. frequency) were globally analyzed.

[5] = system: E. coli cells; test: Growth inhibition after 5 min incubation with porphyrin and white-light irradiation; type: cell-based, Escherichia coli
Protocol: as §5, §1, §2, §3, §4

[6] = Photostability (photobleaching) under white light; type: physicochemical; conditions: 1 μM in PBS
Protocol: The photostability of the porphyrins was determined in PBS upon illumination of […] solutions with white light (400-800 nm) isolated from the emission of a quartz-halogen lamp equipped with UV and infrared filters (Teclas, Lugano, Switzerland). The lamp was operated at a fluence rate of 150 mW/cm^2. During irradiation, the solution was magnetically stirred and kept at 37° C. The concentration of the porphyrin samples was monitored spectrophotometrically at different irradiation times and the photostability was expressed as the percent residual absorbance referred to the absorbance measured prior to irradiation.

[7] = Triplet state properties by laser flash photolysis; type: physicochemical; conditions: phosphate-buffered solution; for φT, triplet quantum yield: ε920 estimated by total depletion method
Protocol: Laser flash photolysis experiments were carried out by use of the setup previously described in Gomer, et al., with excitation wavelengths of 355 and 420 nm. Gorner, et al., Photoinduced electron transfer between styrylanthracenes and electron donors and acceptors in acetonitrile, J. Chem. Soc. Faraday Trans., vol. 88, pp. 29-34 (1992).
The transient spectra of the porphyrins in buffer solutions were recorded upon laser flash photolysis excitation at 355 and 420 nm. […] The decay (growth) of the signal (bleaching) occurred according to first-order kinetics and led to a complete recovery of the ground state with a lifetime of 91 μs. […] This also allowed the triplet quantum yield (φT) to be determined (see Table 3), after calibration of the experimental setup by use of an optically-matched solution of benzophenone in acetonitrile.

[8] = Photosensitized photooxidation of NATA; conditions: 10 μM NATA; for ΦSDS × 10^3, quantum yield for photo-oxidation of NATA: aqueous 2% SDS; for ΦPBS × 10^3, quantum yield for photo-oxidation of NATA: phosphate buffered solution
Protocol: The photosensitizing activity of the various porphyrins was tested by measuring their efficiency in promoting the photooxidation of N-acetyl-L-tryptophanamide (NATA, Aldrich Chem. Co.) as a model biological substrate. Toward this aim, 10 μM NATA in PBS or in water containing 2% SDS was irradiated in the presence of 5 μM porphyrin. The irradiations were performed with 515±10 nm-light isolated by means of an interference filter (Balzers, Liechtenstein), while the solution (2 ml) was magnetically stirred in a quartz cuvette of 1-cm optical path and kept at 25° C. The photosensitized modification of NATA was followed by measuring the decrease in the intensity of its fluorescence emission spectrum (300-450 nm) upon excitation with 290 nm-light at various irradiation times. Plots of in F°/F (where F° and F represent the fluorescence intensity at time 0 and t, respectively) vs. the irradiation time allowed the first-order rate constants of the photo-process to be derived.
The intensity of the incident light was measured by using Aberchrome 999P in toluene as an actinometer. Heller, EPA Newslett., 29:49-60 (1987). This parameter was used to calculate the quantum yields of NATA photooxidation sensitized by the different porphyrins.

[9] = system: E. coli cells; test: Binding of porphyrins to bacteria cells; type: cell-based, Escherichia coli; conditions: 5 min incubation, 1 μM porphyrin, three PBS washings
Protocol: as §1
(§6) The amount of cell-bound porphyrins was determined in the pellets after resuspension and overnight-incubation in 2% aqueous SDS. The porphyrin concentration in the cell lysate was determined by measuring the intensity of red fluorescence (600-750 nm) emitted after excitation at 420 nm and interpolating the data on a calibration plot obtained with known porphyrin concentrations. The protein content of the cell samples was determined by the method of Lowry (Lowry et al., J. Biol. Chem., 193:265-275 (1951)) and was used to express the amount of porphyrin bound to the cells as nanomoles of porphyrin/mg of protein.

[10] = system: E. coli cells; test: Dark toxicity of porphyrins on bacteria cells; type: cell-based, Escherichia coli; conditions: 10 μM, 5 min incubation in the dark
Protocol: as §2, §3, §4

[11] = system: S. aureus cells; test: Binding of porphyrins to bacteria cells; type: cell-based, Staphylococcus aureus; conditions: S. aureus, 5 min incubation, 1 μM porphyrin, three PBS washings
Protocol: as §1, §6

[12] = system: S. aureus cells; test: Dark toxicity of porphyrins on bacteria cells; type: cell-based, Staphylococcus aureus; conditions: 10 μM, 5 min incubation in the dark
Protocol: as §2, §3, §4

[13] = 1 μM, incubated 5 min, white light 5 min
[14] = Table 5: 1 μM, 5 min incubation, 5 min white light (150 mW/cm^2)
[15] = 10 μM, incubated 5 min, white light 5 min
[16] = 10 μM, incubated 5 min, white light 15 min
[17] = Table 5: 10 μM, 5 min incubation, 5 min white light (150 mW/cm^2)

Structure (SMILES) | DECREASE OF SURVIVAL (log) ([1]; 1 μM porphyrin) | DECREASE OF SURVIVAL (log) ([1]; 10 μM porphyrin) | ΦF (PBS), fluorescence quantum yield [2] | ΦF (SDS), fluorescence quantum yield [2] | A2, relative weight of slow component [4] [%] | τ1, fluorescence decay time of fast component [4] [ns] | τ2, fluorescence decay time of slow component [4] [ns] | λmin of transient spectrum [7] [nm] | φ×ε920 [7] [M⁻¹ cm⁻¹] | τ^air, triplet lifetime [7] [μs] | φT, triplet quantum yield [7] | ΦSDS × 10^3, quantum yield for photo-oxidation of NATA [8] | ΦPBS × 10^3, quantum yield for photo-oxidation of NATA [8] | further results
CCCCCCCCCCCCCCCCCCCCCC[n+]1ccc(-c2c3nc(c(-c4cc[n+](C)cc4)c4ccc([nH]4)c(-c4cc[n+](C)cc4)c4nc(c(-c5cc[n+](C)cc5)c5ccc2[nH]5)C=C4)C=C3)cc1.Cl.Cl.[Cl-].[Cl-].[Cl-].[Cl-] [Porphyrin C22, 5-(4-N-docosanyl)-10,15,20-tris(4-N-methylpyridyl)-21H,23H-porphine tetrachloride dihydrochloride salt] | +0.22 ± 0.07 log | −1.94 ± 0.28 | 0.001 | 0.029 | 73 | 0.5 | 5.9 | 420 | <122 | 0.1 | <0.08 | 0.83 ± 0.08 | below our detection limits | Growth inhibition (%) S. aureus [3, 13]: 69.7%; Growth inhibition (%) S. aureus ([3]; 1 μM, incubated 5 min, white light 10 min): 90.2%; Growth inhibition (%) S. aureus ([3]; Table 5: 0.5 μM, 5 min incubation, 5 min white light (150 mW/cm^2)): 27%; Growth inhibition (%) S. aureus [3, 14]: 70%; Growth inhibition (%) E. coli [5, 13]: 2.7%; Growth inhibition (%) E. coli ([5]; 1 μM, incubated 5 min, white light 30 min): 18.5%; Growth inhibition (%) E. coli [5, 14]: 3%; t^1/2 of initial fast photodegradation phase [6]: 6.5 min
C[n+]1ccc(-c2c3nc(c(-c4cc[n+](C)cc4)c4ccc([nH]4)c(-c4cc[n+](C)cc4)c4nc(c(-c5cc[n+](C)cc5)c5ccc2[nH]5)C=C4)C=C3)cc1.Cc1ccc(S(=O)(=O)[O-])cc1.Cc1ccc(S(=O)(=O)[O-])cc1.Cc1ccc(S(=O)(=O)[O-])cc1.Cc1ccc(S(=O)(=O)[O-])cc1 [Porphyrin T4MPyP, Meso-tetra(N-methyl-4-pyridyl)porphine tetratosylate, reference compound] | +0.28 log | −1.82 ± 0.82 | 0.017 | 0.031 | 71 | 1.0 | 4.7 | 425 | 6814 | 14 | 0.73 | 0.64 ± 0.08 | 0.77 ± 0.21 | initially bound porphyrin retained after three washings [9]: 11%; inhibition of bacterial cell growth in the dark [10]: barely detectable inhibition; Growth inhibition (%) S. aureus [3, 15]: 96.4%; Growth inhibition (%) S. aureus [3, 16]: 100%; Growth inhibition (%) S. aureus [3, 17]: 96%; A1, relative weight of fast component [4]: 29%; initially bound porphyrin retained after three washings [11]: 16%; Growth inhibition (%) E. coli [5, 15]: 28.7%; Growth inhibition (%) E. coli [5, 16]: 82.8%; Growth inhibition (%) E. coli [5, 17]: 29%; concentration photoinducing significant bacteriostatic and bactericidal action ([5]; both cell strains (S. aureus and E. coli)): 10 µM; λmax of transient spectrum [7]: 480 nm; τ^N2, triplet lifetime ([7]; N2): 91 μs; inhibition of bacterial cell growth in the dark [12]: barely detectable inhibition
